# Like-named read-outs stand apart in the source and are kept apart here.
# What was measured:
# Format in all cases: cell-based
# XF 498 (human CNS) = test: SRB assay, in vitro antitumor effect against XF 498; details: for IC50: Homo sapiens
# Method: (§1) In vitro antitumor effect against human tumor cell lines.
# (§2) b. 5×10^3 ~2×10^4 cells were added into each well of 96-well plate and cultured in 5% CO2 incubator, at 37° C., for 24 hours.
# (§3) c. Each sample drug was dissolved in a little DMSO and diluted with the used medium to a prescribed concentration for experiments, wherein the final concentration of DMSO was controlled below 0.5%.
# (§4) d. Medium of each well cultured for 24 hours as above b. was removed by aspiration. Each 200 μl of drug samples prepared in c. was added into each well and the wells were cultured for 48 hours. Tz(time zero) plates were collected at the point of time drugs were added.
# (§5) e. According to the SRB assay method, cell fixing with TCA, staining with 0.4% SRB solution, washing with 1% acetic acid and elution of dye with 10 mM Tris solution were carried out on Tz plates and culture-ended plates, and then, OD values were measured at 520 nm.
# (§6) a. Time zero(Tz) value was determined with measuring the SRB protein value at the point of time drugs were added.
# (§7) b. Control value(C) was determined with the OD value of an well untreated with drug.
# (§8) c. Drug-treated test value(T) was determined with the OD value of drug-treated well.
# (§9) d. Effects of drugs were estimated with growth stimulation, net growth inhibition, net killing etc. calculated from Tz, C and T.
# (§10) e. If T≥Tz, cellular response function was calculated by 100×(T-Tz)/(C-Tz), and if T<Tz, by 100×(T-Tz)/Tz.
# SKOV-3 (human ovarian) = test: SRB assay, in vitro antitumor effect against SKOV-3; details: SK-OV-3, 48 hours; for IC50: Homo sapiens, read-out: ED50 (the source's name)
# Method: as §1, §2, §3, §4, §5, §6, §7, §8, §9, §10
# [1] = tested on: A549 (human non-small lung cell); test: SRB assay, in vitro antitumor effect against A549; details: for IC50: Homo sapiens
# Method: as §1, §2, §3, §4, §5, §6, §7, §8, §9, §10
# SKMEL-2 (human melanoma) = test: SRB assay, in vitro antitumor effect against SKMEL-2; details: for IC50: Homo sapiens
# Method: as §1, §2, §3, §4, §5, §6, §7, §8, §9, §10
# HCT-15 (human colon) = test: SRB assay, in vitro antitumor effect against HCT-15; details: for IC50: Homo sapiens
# Method: as §1, §2, §3, §4, §5, §6, §7, §8, §9, §10
# [2] = XF498, XF-498, 48 hours, read-out: ED50 (the source's name)
# [3] = A549, 48 hours, read-out: ED50 (the source's name)
# [4] = SK-MEL-2, 48 hours, read-out: ED50 (the source's name)
# [5] = HCT 15, 48 hours, read-out: ED50 (the source's name)
IC50 (XF 498 (human CNS); [2]),IC50 (SKOV-3 (human ovarian)),"IC50 [1, 3]",IC50 (SKMEL-2 (human melanoma); [4]),IC50 (HCT-15 (human colon); [5]),SMILES,"IC50 (SKMEL-2 (human melanoma); SK-MEL-2, 48 h, read-out: ED50)","IC50 (HCT-15 (human colon); HCT-15, 48 h, read-out: ED50)","ED50 (XF 498 (human CNS); XF-498, 48 hours)",ED50 (SKOV-3 (human ovarian)),"ED50 ([1]; A549, 48 hours)","ED50 (SKMEL-2 (human melanoma); SK-MEL-2, 48 hours)","ED50 (HCT-15 (human colon); HCT 15, 48 hours)","IC50 ([1]; A549, 48 h, read-out: ED50)","IC50 (XF 498 (human CNS); XF498, 48 h, read-out: ED50)"
0.0009 µg/mL,0.0095 µg/mL,0.0004 µg/mL,0.0121 µg/mL,0.0108 µg/mL,"CCc1cc(N(C)C(=O)N2CCN(c3cc(OC)cc(OC)c3)CC2)c(OC)nc1C [Example 143, 1-[N-(5-Ethyl-2-methoxy-6-methylpyridin-3-yl)-N-methylaminocarbonyl]-4-(3,5-dimethoxyphenyl)piperazine]",,,,,,,,,
0.14 µg/mL,0.12 µg/mL,0.21 µg/mL,0.08 µg/mL,0.16 µg/mL,"COc1cc(OC)cc(N2CCN(C(=O)Nc3cc(C(C)=O)c(C)nc3OC)CC2)c1 [Example 46, 1-[(5-Acetyl-2-methoxy-6-methylpyridin-3-yl)amninocarbonyl]-4-(3,5-dimethoxyphenyl)piperazine]",,,,,,,,,
0.072 µg/mL,0.068 µg/mL,0.021 µg/mL,0.008 µg/mL,0.56 µg/mL,"COc1cc(C)c(C)cc1NC(=S)N1CCN(c2cc(C)cc(C)c2)CC1 [Example 198, 1-[(4,5-Dimethyl-2-methoxyphenyl)aminothiocarbonyl]-4-(3,5-dimethylphenyl)piperazine]",,,,,,,,,
0.092 µg/mL,0.04 µg/mL,0.09 µg/mL,0.09 µg/mL,0.05 µg/mL,"COc1nc(C)c(C)cc1NC(=S)N1CCN(c2cc(F)cc(F)c2)CC1 [Example 23, 1-[(5,6-Dimethyl-2-methoxypyridin-3-yl)aminothiocarbonyl]-4-(3,5-difluorophenyl)piperazine]",,,,,,,,,
1.01 µg/mL,0.53 µg/mL,0.5 µg/mL,0.26 µg/mL,0.44 µg/mL,"COc1cc(C)c(C)cc1NC(=S)N1CCN(c2cc(F)cc(F)c2)CC1 [Example 200, 1-[(4,5-Dimethyl-2-methoxyphenyl)aminothiocarbonyl]-4-(3,5-difluorophenyl)piperazine]",,,,,,,,,
0.11 µg/mL,0.07 µg/mL,0.15 µg/mL,0.21 µg/mL,0.11 µg/mL,"CCCc1cc(NC(=O)N2CCN(c3cc(C)cc(C)c3)CC2)c(OC)nc1C [Example 9, 1-[(2-Methoxy-6-methyl-5-propylpyridin-3-yl)aminocarbonyl]-4-(3,5-dimethylphenyl)piperazine]",,,,,,,,,
0.74 µg/mL,0.98 µg/mL,1.04 µg/mL,0.72 µg/mL,0.63 µg/mL,"COc1cc(C)c(C)cc1NC(=O)N1CCN(c2cccc(O)c2)CC1 [Example 179, 1-[(4,5-Dimethyl-2-methoxyphenyl)aminocarbonyl]-4-(3-hydroxylphenyl)piperazine]",,,,,,,,,
0.47 µg/mL,0.28 µg/mL,0.09 µg/mL,0.06 µg/mL,0.4 µg/mL,"COc1cc(C)c(C)cc1N(C)C(=O)N1CCN(c2cc(C)cc(C)c2)CC1 [Example 191, 1-[N-(4,5-Dimethyl-2-methoxyphenyl)-N-methylaminocarbonyl]-4-(3,5-dimethylphenyl)piperazine]",,,,,,,,,
0.64 µg/mL,0.62 µg/mL,0.92 µg/mL,0.47 µg/mL,0.81 µg/mL,"COc1nc(C)c(C(C)=O)cc1NC(=O)N1CCN(c2cc(C)cc(C)c2)CC1 [Example 47, 1-[(5-Acetyl-2-methoxy-6-methylpyridin-3-yl)aminocarbonyl]-4-(3,5-dimethylphenyl)piperazine]",,,,,,,,,
0.73 µg/mL,0.56 µg/mL,0.91 µg/mL,0.62 µg/mL,0.71 µg/mL,"CCCc1cc(NC(=O)N2CCN(c3ccccc3OC)CC2)c(OC)nc1C [Example 11, 1-[(2-Methoxy-6-methyl-5-propylpyridin-3-yl)aminocarbonyl]-4-(2-methoxyphenyl)piperazine]",,,,,,,,,
0.53 µg/mL,0.91 µg/mL,0.47 µg/mL,0.86 µg/mL,0.49 µg/mL,"COc1cc(OC)cc(N2CCN(C(=S)Nc3cc4ccccc4nc3OC)CC2)c1 [Example 109, 1-[(2-Methoxyquinolin-3-yl)aminothiocarbonyl]-4-(3,5-dimethoxyphenyl)piperazine]",,,,,,,,,

# The next lines start with the compound.
SMILES,IC50 (XF 498 (human CNS); [2]),IC50 (SKOV-3 (human ovarian)),"IC50 [1, 3]",IC50 (SKMEL-2 (human melanoma); [4]),IC50 (HCT-15 (human colon); [5]),"IC50 (SKMEL-2 (human melanoma); SK-MEL-2, 48 h, read-out: ED50)","IC50 (HCT-15 (human colon); HCT-15, 48 h, read-out: ED50)","ED50 (XF 498 (human CNS); XF-498, 48 hours)",ED50 (SKOV-3 (human ovarian)),"ED50 ([1]; A549, 48 hours)","ED50 (SKMEL-2 (human melanoma); SK-MEL-2, 48 hours)","ED50 (HCT-15 (human colon); HCT 15, 48 hours)","IC50 ([1]; A549, 48 h, read-out: ED50)","IC50 (XF 498 (human CNS); XF498, 48 h, read-out: ED50)"
"CCc1nc(OC)c(N(C)C(=O)N2CCN(c3cc(OC)cc(OC)c3)CC2)cc1C [Example 147, 1-[N-(6-Ethyl-2-methoxy-5-methylpyridin-3-yl)-N-methylaminocarbonyl]-4-(3,5-dimethoxyphenyl)piperazine]",0.466 µg/mL,0.092 µg/mL,0.031 µg/mL,,0.18 µg/mL,0.024 µg/mL,,,,,,,,
"C=C(C)c1ccccc1N1CCN(C(=O)Nc2cc(CC)c(C)nc2OC)CC1 [Example 5, 1-[(5-Ethyl-6-methyl-2-methoxypyridin-3-yl)aminocarbonyl]-4-(2-isopropenylphenyl)piperazine]",> 10 µg/mL,0.96 µg/mL,0.71 µg/mL,0.6 µg/mL,0.96 µg/mL,,,,,,,,,
"COc1cc(C)c(C)cc1NC(=S)N1CCN(c2cc(Cl)cc(Cl)c2)CC1 [Example 201, 1-[(4,5-Dimethyl-2-methoxyphenyl)aminothiocarbonyl]-4-(3,5-dichlorophenyl)piperazine]",0.026 µg/mL,0.053 µg/mL,0.014 µg/mL,0.049 µg/mL,,,0.071 µg/mL,,,,,,,
"COc1nc2ccccc2cc1NC(=O)N1CCN(c2cc(Cl)cc(Cl)c2)CC1 [Example 85, 1-[(2-Methoxyquinolin-3-yl)aminocarbonyl]-4-(3,5-dichlorolphenyl)piperazine]",0.104 µg/mL,0.117 µg/mL,0.048 µg/mL,0.039 µg/mL,0.1 µg/mL,,,,,,,,,
"COc1nc(C)c(C)cc1NC(=S)N1CCN(c2cccc(O)c2)CC1 [Example 24, 1-[(5,6-Dimethyl-2-methoxypyridin-3-yl)aminothiocarbonyl]-4-(3-hydroxyphenyl)piperazine]",0.234 µg/mL,0.006 µg/mL,0.03 µg/mL,0.01 µg/mL,0.01 µg/mL,,,,,,,,,
"CCN(C(=O)N1CCN(c2cc(OC)cc(OC)c2)CC1)c1cc(C)c(C)nc1OC [Example 133, 1-[N-Ethyl-N-(5,6-dimethyl-2-methoxypyridin-3-yl)aminocarbonyl]-4-(3,5-dimethoxyphenyl)piperazine]",0.61 µg/mL,0.94 µg/mL,0.57 µg/mL,0.53 µg/mL,0.57 µg/mL,,,,,,,,,
"N.N.[Cl][Pt][Cl] [Cisplatin, reference compound]",,,,,,,,0.7771 µg/mL,0.7134 µg/mL,0.8184 µg/mL,0.7147 µg/mL,3.0381 µg/mL,,
COc1cc(OC)cc(N2CCN(C(=O)N(c3cc4ccccc4nc3OC)C(C)C)CC2)c1 [Example 100],0.66 µg/mL,3.02 µg/mL,4.54 µg/mL,3.47 µg/mL,4.21 µg/mL,,,,,,,,,
"COc1nc2ccccc2cc1NC(=O)N1CCN(c2cccc(Cl)c2)CC1 [Example 88, 1-[(2-Methoxyquinolin-3-yl)aminocarbonyl]-4-(3-chlorophenyl)piperazine]",0.009 µg/mL,0.043 µg/mL,,0.02 µg/mL,,,0.011 µg/mL,,,,,,0.014 µg/mL,
"CCCc1nc(OC)c(NC(=S)N2CCN(c3cc(C)cc(C)c3)CC2)cc1C [Example 27, 1-[(2-Methoxy-5-methyl-6-propylpyridin-3-yl)aminothiocarbonyl]-4-(3,5-dimethylphenyl)piperazine]",,0.11 µg/mL,0.02 µg/mL,0.01 µg/mL,0.165 µg/mL,,,,,,,,,0.046 µg/mL
